We go through 36 compounds from patent US12358921B2, “Antiviral heterocyclic compounds” (priority 2022, dated 2025).

Common to all, as to type: cell-based
For experiment [1], the system named is HUMAN RSV-A (“LONG” STRAIN). As to the kind of experiment: RSV-A assay (CPE, ATPlite) in Hep-2 cells. The following applies: human respiratory syncytial virus, 120 h, MOI 0.1, 5-day incubation. In outline: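 Protection from RSV cytopathic effect read by ATP luminescence (ATPlite) after 5-day culture. Genotype A "Long" virus added at MOI 0.1 to Hep-2 monolayers at 8,000 cells/well, pre-dosed with duplicate 2-fold compound dilutions; controls include infected untreated and uninfected wells. EC50 values binned into ranges.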
A general note: Cellular ATP, detected with luciferase, serves as a proxy for viable cell number.

In experiment [2] the test system is hMPV A2 TN/94-49. As to the kind of experiment: HMPV antiviral assay Method 1 (LLC-MK2 cells, ATP-Lite). To be noted: hMPV A2 TN/94-49, LLC-MK2 cells. In outline:
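LLC-MK2 cells infected in suspension with hMPV A2 TN/94-49 at MOI 0.005, 5,000 cells/well, in serum-free OptiMEM with 2 μg/mL TPCK-trypsin (final) and CaCl2; compounds in duplicate, 10 points, 2 μM top, 2.5-fold dilutions. After 7 days at 37 °C, cell health by ATP-Lite luminescence; EC50 by four-parameter fit.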

Experiment [3] concerns hMPV A2 TN/94-49. Description: HMPV antiviral assay Method 2 (LLC-MK2 cells with CP-100-356, ATP-Lite). To be noted: hMPV A2 TN/94-49, LLC-MK2 cells, 4 μM CP-100-356, Method 2. An outline of the steps: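 The protective effect was measured after 7 days at 37 °C by ATP-Lite luminescence and expressed as % cell health relative to virus-only and cells-only wells, with EC50 from a four-parameter logistic. Cells were LLC-MK2 infected with strain A2 TN/94-49 (MOI 0.16) with final 2 μM CP-100-356 and 2 μg/mL TPCK-trypsin; 10 duplicate concentrations from 200 nM, 2.5-fold steps.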

For orientation: EC50 means the concentration at which the effect is half-maximal. Regarding `COc1cc(C(=O)NC[C@@](O)(c2ccccc2)c2cc3c(c(-c4cc(Cl)ccc4F)n2)OC[C@]3(C)C(N)=O)cc2cn(C(F)F)nc12` [Example 145], the EC50 in experiment [1] is < 200 nM; in experiment [2], < 500 nM; in experiment [3], < 200 nM.

Regarding `COc1cc(C(=O)NC[C@](O)(c2cc3c(c(-c4ccc(F)c(Cl)c4Cl)n2)OC[C@]3(C)C(N)=O)C(F)(F)F)cc2cn(C3CC3)nc12` [Example 65], the EC50 was < 200 nM in experiment [1], < 500 nM in experiment [2] and < 200 nM in experiment [3].

Turning to `COc1cc(C(=O)NC[C@@](O)(c2ccccc2)c2cc3c(c(-c4cc(Cl)c(F)cc4F)n2)OC[C@]3(C)C(N)=O)cc2cc(C)nnc12` [Example 89], the results for the EC50 in experiment [1], in experiment [2] and in experiment [3] were < 200 nM, < 500 nM and < 200 nM, respectively.

As for `COc1cc(C(=O)NC[C@@](O)(c2ccccc2)c2cc3c(c(-c4cc(Cl)ccc4F)n2)OC[C@]3(C)C(N)=O)cc2cc(C3CC3)nn12` [Example 146], the EC50 in experiment [1] was < 200 nM; in experiment [2], < 500 nM; in experiment [3], < 200 nM.

In the case of `COc1cc(C(=O)NC[C@@](O)(c2ccccc2)c2cc3c(c(-c4ccc(F)c(Cl)c4Cl)n2)OC[C@]3(C)C(N)=O)cc2cc(C3CC3)nnc12` [Example 290], the results for the EC50 in experiment [1], in experiment [2] and in experiment [3] were < 200 nM, < 500 nM and < 200 nM, respectively.

On to `C[C@@H](O)COc1cc(C(=O)NC[C@](O)(c2cc3c(c(-c4ccc(F)c(Cl)c4F)n2)OC[C@]3(C)C(N)=O)C2CC2)cc2cn(C3CC3)nc12` [Example 38], for which the EC50 in experiment [1] was < 200 nM; in experiment [2], > 500 nM; in experiment [3] it was < 200 nM.

Take `COc1cc(C(=O)NC[C@@](O)(c2ccccc2)c2cc3c(c(-c4cc(C(F)F)c(F)cc4F)n2)OC[C@]3(C)C(N)=O)cc2oc(C3CC3)nc12` [Example 299]: the half-maximal effective concentration (EC50) is < 200 nM in experiment [1], < 500 nM in experiment [2] and < 200 nM in experiment [3].

`COc1cc(C(=O)NCC(O)(c2cc3c(c(-c4cc(Cl)c(F)cc4F)n2)OC[C@]3(C)C(N)=O)c2ccc(C)s2)cc2cn(C3CC3)nc12` (stereo partly shown) [Example 470]: the EC50 in experiment [1] was < 200 nM; in experiment [2] it was < 500 nM; in experiment [3], < 200 nM.

Consider `C[C@]1(C(N)=O)COc2c1cc([C@@](O)(CNC(=O)c1cc(OCCO)c3nn(C4CC4)cc3c1)C1CC1)nc2-c1ccc(F)c(Cl)c1F` [Example 37], for which the half-maximal effective concentration (EC50) is < 200 nM in experiment [1], > 500 nM in experiment [2] and < 200 nM in experiment [3].

`COc1cc(C(=O)NC[C@@](O)(c2ccccc2)c2cc3c(c(-c4ccc5c(c4)OC(F)(F)O5)n2)OC[C@]3(C)C(N)=O)cc2cn(C3CC3)nc12` [Example 18]: the EC50 was < 200 nM in experiment [1], < 500 nM in experiment [2] and < 200 nM in experiment [3].

With `COc1cc(C(=O)NC[C@@](O)(c2ccc(F)cc2)c2cc3c(c(-c4cc(Cl)c(F)cc4F)n2)OC[C@]3(C)C(N)=O)cc2cn(C(F)F)nc12` [Example 13], the figures for the EC50 in experiment [1] and in experiment [2] were < 200 nM and < 500 nM, respectively.

For `Cc1nc2ccc(C(=O)NC[C@@](O)(c3cccc(F)c3)c3cc4c(c(-c5ccc(F)c(Cl)c5Cl)n3)OC[C@]4(C)C(N)=O)cc2o1` [Example 283], the values for the EC50 in experiment [1] and in experiment [2] were < 200 nM and < 500 nM, respectively.

In the case of `[2H]c1nc2c(OC)cc(C(=O)NC[C@](O)(c3cc4c(c(-c5cc(F)c(F)cc5F)n3)OC[C@]4(C)C(N)=O)C3CC3)cc2cc1Br` [Example 30], the figures for the EC50 in experiment [1] and in experiment [2] were < 200 nM and < 500 nM, respectively.

`COc1ccc([C@](O)(CNC(=O)c2cc(OC)c3nn(C(F)F)cc3c2)c2cc3c(c(-c4cc(Cl)c(F)cc4F)n2)OC[C@]3(C)C(N)=O)cc1` [Example 167]: the EC50 was < 200 nM in experiment [1] and < 500 nM in experiment [2].

Regarding `Cc1nc2ccc(C(=O)NC[C@@](O)(c3cccc(F)c3)c3cc4c(c(-c5ccc6c(c5Cl)OC(F)(F)O6)n3)OC[C@]4(C)C(N)=O)cc2o1` [Example 284], the results for the EC50 in experiment [1] and in experiment [2] were < 200 nM and < 500 nM, respectively.

On to `COc1cc(C(=O)NC[C@](O)(c2cc3c(c(-c4cc(Cl)c(F)cc4F)n2)OC[C@]3(C)C(N)=O)C2CC2)cc2cc(C(F)(F)F)cnc12` [Example 1], for which the values for the EC50 in experiment [1] and in experiment [2] were < 200 nM and > 500 nM, respectively.

In the case of `C[C@]1(C(N)=O)COc2c1cc([C@@](O)(CNC(=O)c1cc(OC3CC3)c3nn(C4CC4)cc3c1)c1ccccc1)nc2-c1ccc2c(c1Cl)OC(F)(F)O2` [Example 252], the half-maximal effective concentration (EC50) in experiment [1] was < 200 nM; in experiment [2], < 500 nM.

As to `COc1cc(C(=O)NC[C@](O)(c2cc3c(c(-c4cc(Cl)c(F)cc4F)n2)OC[C@]3(C)C(N)=O)c2ccccc2F)cc2cn(C(F)F)nc12` [Example 138], the EC50 in experiment [1] was < 200 nM; in experiment [2], < 500 nM.

For `COc1cc(C(=O)NC[C@@](O)(c2ccccc2)c2cc3c(c(-c4ccc5c(c4Cl)OC(F)(F)O5)n2)OC[C@]3(C)C(N)=O)cc2cn(C3CC3)nc12` [Example 251], the figures for the EC50 in experiment [1] and in experiment [2] were < 200 nM and < 500 nM, respectively.

For the compound `COc1cc(C(=O)NC[C@](O)(c2cc3c(c(-c4cccc(S(F)(F)(F)(F)F)c4)n2)OC[C@]3(C)C(N)=O)C(F)(F)F)cc2cn(C3CC3)nc12` [Example 54], the EC50 is < 200 nM in experiment [1] and > 500 nM in experiment [2].

With `COc1cc(C(=O)NCC(O)(c2cc3c(c(-c4cc(Cl)c(F)cc4F)n2)OC[C@]3(C)C(N)=O)c2cc3ccccc3s2)cc2cn(C3CC3)nc12` (stereo partly shown) [Example 469], the results for the concentration giving a half-maximal response (EC50) in experiment [1] and in experiment [2] were < 200 nM and > 500 nM, respectively.

`COc1cc(C(=O)NC[C@@](O)(c2ccccc2)c2cc3c(c(-c4cc(Cl)c(F)cc4F)n2)OC[C@]3(C)C(N)=O)cc2cn(C(F)F)nc12` [Example 156]: the EC50 in experiment [1] was < 200 nM; in experiment [2], < 500 nM.

Turning to `Cc1nc2ccc(C(=O)NC[C@@](O)(c3ccccc3)c3cc4c(c(-c5cc(Cl)c(F)cc5F)n3)OC[C@]4(C)C(N)=O)cc2o1` [Example 86], the EC50 is < 200 nM in experiment [1] and < 500 nM in experiment [2].

As to `COc1cc(C(=O)NC[C@@](O)(c2ccsc2)c2cc3c(c(-c4cc(F)c(F)cc4F)n2)OC[C@]3(C)C(N)=O)cc2cn(C(F)F)nc12` [Example 178], the results for the EC50 in experiment [1] and in experiment [2] were < 200 nM and < 500 nM, respectively.

As for `COc1cc(C(=O)NC[C@](O)(c2cc3c(c(-c4ccc(C(F)(F)F)c(C)c4)n2)OC[C@]3(C)C(N)=O)C2CC2)cc2cn(C3CC3)nc12` [Example 55], the EC50 in experiment [1] is < 200 nM; in experiment [2] it was > 500 nM.

Regarding `[2H]C([2H])([2H])c1nc2c(OC)cc(C(=O)NC[C@](O)(c3cc4c(c(-c5cc(Cl)c(F)cc5F)n3)OC[C@]4(C)C(N)=O)C3CC3)cc2s1` [Example 10], the EC50 is < 200 nM in experiment [1] and < 500 nM in experiment [2].

Turning to `CCNC(=O)[C@@]1(C)COc2c1cc([C@@](O)(CNC(=O)c1cc(OC)c3nn(C4CC4)cc3c1)c1ccccc1)nc2-c1cc(Cl)c(F)cc1F` [Example 142], the EC50 was < 200 nM in experiment [1] and < 500 nM in experiment [2].

`COc1cc(C(=O)NC[C@](O)(c2cc3c(c(-c4ccc5ccsc5c4)n2)OC[C@]3(C)C(N)=O)C2CC2)cc2cn(C3CC3)nc12` [Example 48]: the half-maximal effective concentration (EC50) was < 200 nM in experiment [1] and > 500 nM in experiment [2].

Take `COc1cc(C(=O)NC[C@@](O)(c2ccsc2)c2cc3c(c(-c4cc(Cl)c(F)cc4F)n2)OC[C@]3(C)C(N)=O)cc2cn(C3(F)CC3)nc12` [Example 175]: the EC50 was < 200 nM in experiment [1] and < 500 nM in experiment [2].

As to `COc1cc(C(=O)NC[C@@](O)(c2ccccc2)c2cc3c(c(-c4cc(Cl)c(F)cc4F)n2)OC[C@]3(C)C(N)=O)cc2oc(C3CC3)nc12` [Example 85], the EC50 was < 500 nM in experiment [2] and < 200 nM in experiment [3].

Consider `COc1cc(C(=O)NC[C@@](O)(c2ccc(F)cc2)c2cc3c(c(-c4cc(Cl)c(F)cc4F)n2)OC[C@]3(C)C(N)=O)cc2cc(Cl)c(C)nc12` [Example 17], for which the results for the EC50 in experiment [1] and in experiment [2] were < 200 nM and < 500 nM, respectively.

`COc1cc(C(=O)NC[C@](O)(c2cc3c(c(-c4ccc(F)cc4O)n2)OC[C@]3(C)C(N)=O)C2CC2)cc2cn(C3CC3)nc12` [Example 63]: the EC50 is < 200 nM in experiment [1] and > 500 nM in experiment [2].

`[2H]C([2H])([2H])c1nc2c(OC)cc(C(=O)NC[C@@](O)(c3ccc(F)cc3)c3cc4c(c(-c5cc(Cl)c(F)cc5F)n3)OC[C@]4(C)C(N)=O)cc2s1` [Example 16]: the EC50 was < 200 nM in experiment [1] and < 500 nM in experiment [2].

For the compound `COc1cc(C(=O)NC[C@@](O)(c2ccccc2)c2cc3c(c(-c4ccc5c(c4Cl)OC(F)(F)O5)n2)OC[C@]3(C)C(N)=O)cc2cc(C3CC3)nn12` [Example 254], the EC50 in experiment [1] is < 200 nM; in experiment [2], < 500 nM.

As to `Cc1nc2ccc(C(=O)NC[C@@](O)(c3ccccc3)c3cc4c(c(-c5ccc(F)c(Cl)c5Cl)n3)OC[C@]4(C)C(N)=O)cc2o1` [Example 267], the EC50 in experiment [1] was < 200 nM; in experiment [2], < 500 nM.

In the case of `COc1cc(C(=O)NC[C@](O)(c2cc3c(c(-c4cc(Cl)c(F)cc4F)n2)OC[C@]3(C)C(N)=O)c2ccccc2F)cc2cn(C3CC3)nc12` [Example 136], the EC50 is < 200 nM in experiment [1] and < 500 nM in experiment [2].
